Experimental data: publication PMC3608737, “Odorant Metabolism Catalyzed by Olfactory Mucosal Enzymes Influences Peripheral Olfactory Responses in Rats” (PLoS ONE, 2013)
pIC50: −log10 of the molar value.

How the values were obtained:
CYPs [1] = test: Inhibition of quinoline metabolism catalyzed by olfactory microsomes; format: biochemical, rat; details: for pIC50: substrate quinoline
Protocol: (§1) Animals were sacrificed by decapitation. […] The resulting pellet was resuspended in homogenization buffer. Hepatic subcellular fractions were prepared as described previously.
(§2) Coumarin Quinoline Isoamyl acetate
(§3) Subcellular fraction olfactory hepatic olfactory/hepatic olfactory/hepatic
(§4) microsomes microsomes microsomes S9

CYPs [2] = test: Inhibition of coumarin metabolite formation in olfactory microsomes; format: biochemical, rat; details: for pIC50: substrate coumarin
Protocol: as §1, §2, §3, §4

carboxylesterases = test: Inhibition of isoamyl acetate hydrolysis in the olfactory S9 fraction; format: biochemical, rat
Protocol: as §1
(§5) Reactions involving isoamyl acetate were carried out for 10 min and were terminated by heating at 80°C for 15 min. After centrifugation at 12000 g for 10 min, isoamyl acetate metabolism was assessed by quantifying the acetate in a sample volume of 100 µL using an acetic acid assay kit (Megazyme, Bray, Ireland).
as §2, §3, §4

CYP = test: Quinoline/coumarin metabolism in microsomes from OM superfused with inhibitor for 20 min; format: biochemical, rat; details: 400 µM, superfusion 20 min
Protocol: Reactions were performed in triplicate at 37°C and were initiated by adding odorant to the mixtures after a 5-min pre-incubation period. […] Subsequently, the products were centrifuged at 12 000 g for 10 min. An aliquot of the supernatant (100 µl) was analyzed by reverse phase high performance liquid chromatography (HPLC) using a Waters HPLC system (Milford, MA, USA) equipped with a pump (model 600), an autosampler thermostat set at 10°C (model a717 plus), a photodiode array UV detector (model 996) and an Uptisphere C18-ODB column (5-µm particle size, 150×4.6 mm; Interchim, Montluçon, France). The effluent from the column was routed to an UV detector, which can scan wavelengths from 210 to 400 nm. […] The separation of coumarin and its metabolites was achieved using a solvent gradient program (at 0.6 mL/min) set at: 25% acetonitrile/75% formic acid (0.01% in water) for 10 min, a linear gradient to 80% acetonitrile for 20 min, hold at 80% acetonitrile for 10 min, and then return to the initial conditions.

olfactory epithelium [3] = test: Effect of XME inhibitors on odorant-induced EOG responses; set-up: species or system rat
Protocol: Rats were sacrificed by CO2 exposure and decapitated. […] The data were analyzed using Clampfit software (Axon Instruments).
First, two series of odorant stimulations at 2-min intervals were performed with an 8-min recovery period between each series. Under control conditions, a 2-min interval is sufficient to recover normal response amplitude. Then, the inhibitor was diluted in the Ringer buffer (final concentration 400 µM) and applied to the olfactory turbinates at a rate of 2.5 mL/min for 20 min using the Rheodyne injection valve. The preparation was rinsed for 5 min with the Ringer buffer and the epithelium was stimulated by applying odorant using the same procedures as described above. EOG responses were recorded on endoturbinate IIb. IBMX was applied at the end of each measurement series for data normalization as described above. In addition to the peak maximum amplitude, the onset slope (10% to 90%) and the fast decay slope (90% to 40%) were measured and normalized to the corresponding EOG peak amplitude.

[4] = In vitro metabolism of coumarin by olfactory microsomes (HPLC); format: in vitro ADME, rat
Protocol: as §1, §2, §3, §4

[5] = In vitro metabolism of coumarin by hepatic microsomes (HPLC); format: in vitro ADME, rat; details: liver (hepatic microsomes) incubation
Protocol: as §1, §2, §3, §4

mammalian ORs = test system: mammalian ORs; set-up: method as in PMID 19261596; details: approximately 460 mammalian ORs; cited from earlier work
olfactory epithelium [6] = details: for EOG amplitude compared with parent compound (coumarin or 4-MC): 1, 10 and 100 µM, normalized to IBMX; for EOG amplitude compared with parent compound (coumarin or 4-MC) / EOG response compared with quinoline: vehicle 0.01% DMSO; for EOG response compared with quinoline: 100 µM, normalized to IBMX responses
Protocol: Odorant stock solutions (1 M) were prepared in DMSO. Working solutions were prepared extemporaneously by diluting stock solutions with the Ringer solution. […] The IBMX stock solution (10 mM) was also prepared in DMSO. This stock solution was diluted 100-fold with the Ringer solution to produce a working solution (100 µM) containing 0.1% DMSO.
To assess sensory responses induced by odorant stimulation of the olfactory mucosa, we recorded EOGs. […] Rats were sacrificed by CO2 exposure and decapitated. The head was hemisected and the nasal septum was carefully removed to expose the endoturbinate system of the main olfactory system. The tissue was then superfused continuously (5 mL/min) at room temperature (22–25°C) with modified Ringer buffer containing 140 mM NaCl, 5 mM KCl, 2 mM CaCl2, 2 mM MgCl2, 10 mM HEPES [4-(2-hydroxyethyl)-1-piperazineethanesulfonic acid], adjusted to pH 7.2 and to 320 mOsm.L^−1 with glucose. Odorant stimuli were applied to the turbinates using a custom-built odorant delivery system consisting of a Rheodyne six-port injection valve equipped with a 200-µL loop. This valve injects odorant into the continuous stream of the Ringer solution. The distal part of the delivery system was fixed to a micromanipulator and adjusted to produce uniform flow in the vicinity of the recording electrode. The recording electrode was an Ag/AgCl wire positioned in a disposable pipette tip filled with a conductive gel (WPI, Sarasota, USA). The reference electrode was an 8-mm diameter Ag/AgCl disk covered with conductive gel that was placed under the rat hemi-head. Electrical signals were amplified using an AC/DC differential amplifier (A-M Systems, model 3000, Phymep, Paris, France), run through a low-pass filter of 300 Hz, digitized at 100 Hz using a Digidata 1440A interface board (Axon Instruments, DIPSI Industrie, Châtillon, France) and acquired using Axoscope 10.2 software (Axon Instruments). The data were analyzed using Clampfit software (Axon Instruments). The peak amplitudes of EOG responses were measured at the maximum negative voltage deflection from baseline. The data were normalized by dividing the peak amplitude by the maximum amplitude elicited by 100 µM of IBMX, a phosphodiesterase inhibitor that activates the transduction pathway bypassing the receptor step.

carboxylesterase = test: Isoamyl acetate metabolism in S9 from OM superfused with inhibitor for 20 min; format: biochemical, rat; details: 400 µM, superfusion 20 min
Protocol: To investigate the functional role of the olfactory XMEs, we recorded odorant-induced EOG responses before and after applying two phase I enzyme inhibitors, ABT and BNPP. First, we confirmed that superfusion of OM with ABT or BNPP was sufficient to inhibit CYP and carboxylesterase activities, respectively. For this purpose, the in vitro metabolism of quinoline, coumarin and isoamyl acetate was measured. All steps were performed as described previously except that the microsomal or S9 fractions were prepared from OM that had been superfused with inhibitors for 20 min. Superfusion of the OM with 400 µM of ABT or BNPP decreased the metabolism of quinoline/coumarin or isoamyl acetate, respectively, by approximately 30 to 80% (Fig. S6).
as §5

[7] = inhibitor 400 µM for 20 min, endoturbinate IIb

Nn1nnc2ccccc21 [ABT, 1-aminobenzotriazole]
decrease of the metabolism of quinoline (CYPs [1]; inhibitor 400 µM): approximately 80% | pIC50 (CYPs [1]; read-out: IC50 for inhibition of quinoline-1-oxide formation): 3.87 | pIC50 (CYPs [1]; read-out: IC50 for inhibition of quinoline-5,6-epoxide formation): 3.83 | inhibition of coumarin metabolite formation (CYPs [2]; inhibitor 400 µM): Ninety percent | pIC50 (CYPs [2]; read-out: IC50 for inhibition of 3-hydroxycoumarin formation): 4.39 | pIC50 (CYPs [2]; read-out: IC50 for inhibition of 6-hydroxycoumarin formation): 4.28 | pIC50 (CYPs [2]; read-out: IC50 for inhibition of 7-hydroxycoumarin formation): 4.72 | effect on isoamyl acetate hydrolysis (carboxylesterases; data not shown): no effect | decrease of metabolism of quinoline/coumarin after superfusion of the OM (CYP): 30 to 80% | effect on EOG responses to isoamyl acetate (olfactory epithelium [3]; ABT 400 µM for 20 min, endoturbinate IIb): did not affect | effect on onset and decay slopes of EOG recordings (olfactory epithelium [3]; inhibitor 400 µM for 20 min): unaffected | increase of maximum EOG amplitude elicited by coumarin (olfactory epithelium [3]; [7]): 43% | increase of maximum EOG amplitude elicited by quinoline (olfactory epithelium [3]; [7]): 32%

O=c1ccc2ccccc2o1 [coumarin]
rate of coumarin biotransformation ([4]; OM (olfactory microsomes) incubation): 13.3 nmol/min/mg protein | rate of coumarin biotransformation, OM versus liver incubation ([4]; OM higher than liver): 65 fold | rate of coumarin biotransformation [5]: 0.2 nmol/min/mg protein | number of ORs activated (mammalian ORs): 20

Cc1cc(=O)oc2cc(O)ccc12 [4-MU, 4-methylumbelliferone]
EOG amplitude compared with parent compound (coumarin or 4-MC) (olfactory epithelium [6]): significantly lower than those induced by their parent compounds

O=[N+]([O-])c1ccc(OP(=O)(O)Oc2ccc([N+](=O)[O-])cc2)cc1 [BNPP, bis-p-nitro-phenylphosphate]
effect on olfactory metabolism of quinoline (CYPs [1]; data not shown): not affected | effect on coumarin metabolism (CYPs [2]; data not shown): not affected | pIC50 (carboxylesterases; olfactory S9 fraction): 6.10 | decrease of metabolism of isoamyl acetate after superfusion of the OM (carboxylesterase): 30 to 80% | effect on EOG responses elicited by coumarin (olfactory epithelium [3]; BNPP treatment, stated in the discussion only): but not those elicited by quinoline and coumarin | effect on onset and decay slopes of EOG recordings (olfactory epithelium [3]; inhibitor 400 µM for 20 min): did not modify | increase of maximal EOG response amplitude to isoamyl acetate (olfactory epithelium [3]; [7]): 30%

CC(=O)O [acetic acid]
effect of repeated application on the OM (olfactory epithelium [6]): caused tissue damage

O=c1cc(O)c2ccccc2o1 [4-OH-C, 4-hydroxycoumarin]
EOG amplitude compared with parent compound (coumarin or 4-MC) (olfactory epithelium [6]): significantly lower than those induced by their parent compounds | number of ORs activated (mammalian ORs): only activated one OR

O=c1ccc2ccc(O)cc2o1 [7-OH-C, 7-hydroxycoumarin]
EOG amplitude compared with parent compound (coumarin or 4-MC) (olfactory epithelium [6]): significantly lower than those induced by their parent compounds

Cc1cc(=O)oc2ccccc12 [4-MC, 4-methyl-coumarin]
EOG amplitude compared with parent compound (coumarin or 4-MC) (olfactory epithelium [6]): lower in amplitude than the responses to coumarin

Oc1cccc2cccnc12 [8-OH-Q, 8-hydroxyquinoline]
EOG response compared with quinoline (olfactory epithelium [6]): half of that elicited by quinoline

[O-][n+]1cccc2ccccc21 [Q-1-O, quinoline-1-oxide]
EOG response compared with quinoline (olfactory epithelium [6]): half of that elicited by quinoline

Cc1cc(=O)oc2cc(O[C@@H]3O[C@H](C(=O)O)[C@@H](O)[C@H](O)[C@H]3O)ccc12 [4-MU-G, 4-methylumbelliferone-β-D-glucuronide]
EOG amplitude compared with parent compound (coumarin or 4-MC) (olfactory epithelium [6]): did not elicit any measurable EOG response

CC(C)CCO [isoamyl alcohol]
EOG response amplitude, lower than that elicited by isoamyl acetate (olfactory epithelium [6]; at any concentration (1, 10, 100 µM)): approximately 60%
